In US11987556B2, “Dual-functional compounds and methods of use” (BIOFRONT THERAPEUTICS (BEIJING) CO., LTD., priority 2020, dated 2024):

Tests used:
[1] = molecular target: human recombinant PDE4A (Homo sapiens (Human), UniProt P27815); assay: PDE fluorescence polarization assay (BPS Bioscience kit), PDE4A; type: biochemical; details: FAM-cAMP substrate, 1 hr at room temperature; read-out: IC50 for inhibiting PDE4A
Procedure: (§1) The inhibition of PDE4 (e.g., PDE4A, PDE4C) activity by the compounds (e.g., compound-1, compound-2, compound-3, compound-4, compound-5, and compound-6) are monitored using the PDE fluorescence polarization assay kits from BPS Bioscience (San Diego, USA) following the provided procedure. This assay is based on the selective binding of the fluorescent dye FAM-labelled AMP generated by the PDEs from the FAM-cAMP to its binding beads.
(§2) Briefly, compounds (2.5 ul of different concentrations diluted in the assay buffer) were mixed with 12.5 uL of the FAM-cAMP substrate (200 nM in the assay buffer) in a 384-well plate, 10 ul of the human recombinant PDE4A (BPS, Catalog #60340) or PDE4C (BPS, Catalog #60384) was added. The plate was incubated for 1 hr at room temperature. 50 ul of the binding agent for FAM-AMP was added. The mixture was incubated at room temperature for 20 min. The amount of binding agent bound FAM-AMP was measured by the fluorescence polarization method on the Envision spectrometer. The potency (IC50 value, Table1) of exemplified compounds was calculated from the dose-response curve using the 4-parameter non-linear regression fitting routine.

[2] = molecular target: human recombinant PDE4C (Homo sapiens (Human), UniProt Q08493); assay: PDE fluorescence polarization assay (BPS Bioscience kit), PDE4C; type: biochemical; details: FAM-cAMP substrate, 1 hr at room temperature; read-out: IC50 for inhibiting PDE4C
Chain of human recombinant PDE4C (Q08493 whole entry): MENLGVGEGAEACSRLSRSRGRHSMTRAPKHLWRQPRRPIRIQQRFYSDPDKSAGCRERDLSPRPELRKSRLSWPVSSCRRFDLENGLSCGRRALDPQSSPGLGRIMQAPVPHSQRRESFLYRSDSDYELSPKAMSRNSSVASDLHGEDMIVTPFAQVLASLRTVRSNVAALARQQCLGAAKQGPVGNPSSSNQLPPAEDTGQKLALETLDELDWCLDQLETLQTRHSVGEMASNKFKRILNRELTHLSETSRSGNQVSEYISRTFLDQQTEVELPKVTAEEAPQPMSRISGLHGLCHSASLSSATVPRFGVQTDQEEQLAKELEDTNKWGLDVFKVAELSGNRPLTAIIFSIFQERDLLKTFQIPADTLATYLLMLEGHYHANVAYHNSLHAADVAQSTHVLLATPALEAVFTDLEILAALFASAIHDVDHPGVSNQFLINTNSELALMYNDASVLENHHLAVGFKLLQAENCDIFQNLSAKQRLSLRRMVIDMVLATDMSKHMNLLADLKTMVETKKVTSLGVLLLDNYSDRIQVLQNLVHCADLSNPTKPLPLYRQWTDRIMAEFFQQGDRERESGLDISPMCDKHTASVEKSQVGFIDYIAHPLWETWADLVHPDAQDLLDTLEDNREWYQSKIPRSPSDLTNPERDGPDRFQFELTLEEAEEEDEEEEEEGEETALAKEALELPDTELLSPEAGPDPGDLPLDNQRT
Procedure: as §1, §2

[3] = Blood level of compound-6 produced after oral dosing of compound-1 in mice; type: in vivo; details: 5 mg/kg
Procedure: The exemplified compound-1 (formulated at 0.5 mg/mL in 0.5% carboxymethyl cellulose (CMC)/0.25% Tween-80 in water as a suspension) was dosed orally to 4 mice at 5 mg/kg. […] Approximately 200 ng/mL of compound-6 was detected in the blood at 15 min. Compound-6 blood level peaked at approximately 250 ng/mL between 1 to 2 hrs, and mostly cleared to around 25 ng/mL at 6 hr. […] This kinetic profile of compound-6 blood level provides the opportunities to treat diseases that are responsive to compound-6 treatment, beyond dosing compound-6 directly, such as reducing the expected high Cmax-caused side effects from directly dosing compound-6.

Chain of human recombinant PDE4A (P27815 other isoform, or with tags, fused parts or gaps isoform P27815-4): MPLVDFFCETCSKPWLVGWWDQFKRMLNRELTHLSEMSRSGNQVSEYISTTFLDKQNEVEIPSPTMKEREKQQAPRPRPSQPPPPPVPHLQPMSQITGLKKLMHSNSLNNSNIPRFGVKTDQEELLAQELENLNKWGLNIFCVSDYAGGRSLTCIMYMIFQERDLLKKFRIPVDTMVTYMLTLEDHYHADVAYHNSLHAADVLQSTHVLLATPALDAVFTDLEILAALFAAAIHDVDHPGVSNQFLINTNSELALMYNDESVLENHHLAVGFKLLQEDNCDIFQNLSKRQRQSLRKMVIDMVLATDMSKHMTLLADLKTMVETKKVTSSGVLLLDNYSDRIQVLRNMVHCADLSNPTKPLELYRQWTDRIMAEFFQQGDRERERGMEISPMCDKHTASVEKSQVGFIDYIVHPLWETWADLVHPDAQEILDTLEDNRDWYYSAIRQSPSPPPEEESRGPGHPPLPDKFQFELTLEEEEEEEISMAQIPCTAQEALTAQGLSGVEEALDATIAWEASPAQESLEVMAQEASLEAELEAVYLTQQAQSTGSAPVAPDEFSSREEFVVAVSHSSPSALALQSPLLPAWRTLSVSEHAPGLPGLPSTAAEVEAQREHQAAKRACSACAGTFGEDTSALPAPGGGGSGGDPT

Row | Compound | IC50 [1] | IC50 [2] | bioactivation after oral dosing, forming metabolite compound-6 [3]
1 | CCOc1cc([C@@H](CS(C)(=O)=O)N2C(=O)c3cccc(NC(=O)COC(=O)C(C)(C)CO[N+](=O)[O-])c3C2=O)ccc1OC [compound-1, (S)-2-((2-(1-(3-ethoxy-4-methoxyphenyl)-2-(methylsulfonyl)ethyl)-1,3-dioxoisoindolin-4-yl)amino)-2-oxoethyl 2,2-dimethyl-3-(nitrooxy)propanoate] | 0.178 µM | 2.23 µM | bioactivated rapidly
2 | CCOc1cc([C@@H](CS(C)(=O)=O)N2C(=O)c3cccc(NC(=O)COC(=O)C(C)(CO[N+](=O)[O-])CO[N+](=O)[O-])c3C2=O)ccc1OC [compound-2, (S)-2-((2-(1-(3-ethoxy-4-methoxyphenyl)-2-(methylsulfonyl)ethyl)-1,3-dioxoisoindolin-4-yl)amino)-2-oxoethyl 2-methyl-3-(nitrooxy)-2-((nitrooxy)methyl)propanoate] | 0.308 µM | 2.26 µM | –
3 | CCOc1cc([C@@H](CS(C)(=O)=O)N2C(=O)c3cccc(NC(=O)CNC(=O)C(C)(C)CO[N+](=O)[O-])c3C2=O)ccc1OC [compound-3, (S)-3-((2-((2-(1-(3-ethoxy-4-methoxyphenyl)-2-(methylsulfonyl)ethyl)-1,3-dioxoisoindolin-4-yl)amino)-2-oxoethyl)amino)-2,2-dimethyl-3-oxopropyl nitrate] | 0.215 µM | 1.02 µM | –
4 | CCOc1cc([C@@H](CS(C)(=O)=O)N2C(=O)c3cccc(NC(=O)CO[C@H]4CO[C@H]5[C@@H]4OC[C@H]5O[N+](=O)[O-])c3C2=O)ccc1OC [compound-4, (3R,3aS,6S,6aR)-6-(2-((2-((S)-1-(3-ethoxy-4-methoxyphenyl)-2-(methylsulfonyl)ethyl)-1,3-dioxoisoindolin-4-yl)amino)-2-oxoethoxy)hexahydrofuro[3,2-b]furan-3-yl nitrate] | 0.71 µM | 0.109 µM | –
5 | CCOc1cc([C@@H](CS(C)(=O)=O)N2C(=O)c3cccc(NC(=O)CNC(=O)O[C@H]4CO[C@H]5[C@@H]4OC[C@H]5O[N+](=O)[O-])c3C2=O)ccc1OC [compound-5, (3S,3aR,6R,6aS)-6-(nitrooxy)hexahydrofuro[3,2-b]furan-3-yl (2-((2-((S)-1-(3-ethoxy-4-methoxyphenyl)-2-(methylsulfonyl)ethyl)-1,3-dioxoisoindolin-4-yl)amino)-2-oxoethyl)carbamate] | 0.038 µM | 0.826 µM | –
6 | CCOc1cc([C@@H](CS(C)(=O)=O)N2C(=O)c3cccc(NC(=O)CO)c3C2=O)ccc1OC [compound-6, N-{2-[(1S)-1-(3-ethoxy-4-methoxyphenyl)-2-methanesulfonylethyl]-1,3-dioxoisoindol-4-yl}-2-hydroxyacetamide] | 0.214 µM | 0.734 µM | –
